Test results from patent US6852499B2, “Luciferase detection reagent kits and luciferase detection method using the kit” (Toyo Ink Mfg. Co., Ltd., priority 2002, dated 2005).

Molecular target: T1, Coleoptera luciferase (Photinus pyralis, UniProt P08659)
T1 construct: purchased Toyo Ink Manufacturing Co., Ltd. PGL100
Assay: luciferin/luciferase luminescent reaction with an added sulfur reagent, measured on a luminometer
Assay type: biochemical
Settings: for RLU/200 (integrated quantity of light emitted for 200 seconds) / max RLU (maximum quantity of light emitted): 100 ng/mL luciferase; for max RLU (maximum quantity of light emitted): initial 200 seconds; for emission pattern (glow vs flash luminescence): reagent without thiol reagent, 200 seconds
Experimental: The luciferase used was one included in a commercially available kit (Toyo Ink Manufacturing Co., Ltd.; product No. PGL100).
A “luciferase luminescent reagent” containing 20 mM tricine, 1.07 mM (MgCO3)4Mg(OH)2·5H2O, 2.67 mM magnesium sulfate, 0.1 mM EDTA, 270 μM CoA, 470 μM luciferin and 530 μM adenosine triphosphate (ATP), pH 7.8 was prepared in accordance with the formulation described in the instructions included in “PicaGene Luminescent Kit” (Toyo Ink Manufacturing Co., Ltd.; product No. PGL100), except that 33.3 mM dithiothreitol (DTT) mentioned in the instructions was not added. To the “luciferase luminescent reagent” was added sodium diethyldithiocarbamate at final concentrations of 0 mM, 0.33 mM, 3.3 mM and 33.3 mM.
An enzyme solution containing 100 ng/mL of luciferase was collected in 10 μL in a measurement cuvette of a luminometer (Berthold, LB9506). To the enzyme solution was added 100 μL of each of the “luciferase luminescent reagents” prepared above. Immediately after the addition, the resulting mixed solution was loaded on the luminometer, and the quantity of light emitted was measured for the initial 200 seconds of the reagent addition to determine the maximum quantity of light emitted (RLU/sec) during the period of measurement and the integrated quantity of light emitted for 200 seconds (RLU/200 sec) (Table 2).
(§1) A “luciferase luminescent reagent” containing 20 mM tricine, 1.07 mM (MgCO3)4Mg(OH)2·5H2O, 2.67 mM magnesium sulfate, 0.1 mM EDTA, 270 μM CoA, 470 μM luciferin and 530 μM adenosine triphosphate (ATP), pH 7.8 was prepared in accordance with the formulation described in the instructions included in “PicaGene Luminescent Kit” (Toyo Ink Manufacturing Co., Ltd.; product No. PGL100), except that 33.3 mM dithiothreitol (DTT) mentioned in the instructions was not added.
A “luciferase luminescent reagent” containing 20 mM tricine, 1.07 mM (MgCO3)4Mg(OH)2·5H2O, 2.67 mM magnesium sulfate, 0.1 mM EDTA, 270 μM CoA, 470 μM luciferin and 530 μM adenosine triphosphate (ATP), pH 7.8 was prepared in accordance with the formulation described in the instructions included in “PicaGene Luminescent Kit” (Toyo Ink Manufacturing Co., Ltd.; product No. PGL100), except that 33.3 mM dithiothreitol (DTT) mentioned in the instructions was not added. To the “luciferase luminescent reagent” was added potassium xanthogenate at final concentrations of 0 mM, 0.33 mM 3.3 mM and 33.3 mM.
To the enzyme solution was added 100 μL of each of the “luciferase luminescent reagents” prepared above. Immediately after the addition, the resulting mixed solution was loaded on the luminometer, and the quantity of light emitted was measured for the initial 200 seconds of the reagent addition to determine the maximum quantity of light emitted (RLU/sec) during the period of measurement and the integrated quantity of light emitted for 200 seconds (RLU/200 sec) (Table 2).
A “luciferase luminescent reagent” containing 20 mM tricine, 1.07 mM (MgCO3)4Mg(OH)2·5H2O, 2.67 mM magnesium sulfate, 0.1 mM EDTA, 270 μM CoA, 470 μM luciferin and 530 μM adenosine triphosphate (ATP), pH 7.8 was prepared in accordance with the formulation described in the instructions included in “PicaGene Luminescent Kit” (Toyo Ink Manufacturing Co., Ltd.; product No. PGL100), except that 33.3 mM dithiothreitol (DTT) mentioned in the instructions was not added. To the “luciferase luminescent reagent” was added 2-mercaptobenzothiazole at final concentrations of 0 mM, 0.33 mM 3.3 mM and 33.3 mM.
as §1

T1 sequence (P08659 whole entry): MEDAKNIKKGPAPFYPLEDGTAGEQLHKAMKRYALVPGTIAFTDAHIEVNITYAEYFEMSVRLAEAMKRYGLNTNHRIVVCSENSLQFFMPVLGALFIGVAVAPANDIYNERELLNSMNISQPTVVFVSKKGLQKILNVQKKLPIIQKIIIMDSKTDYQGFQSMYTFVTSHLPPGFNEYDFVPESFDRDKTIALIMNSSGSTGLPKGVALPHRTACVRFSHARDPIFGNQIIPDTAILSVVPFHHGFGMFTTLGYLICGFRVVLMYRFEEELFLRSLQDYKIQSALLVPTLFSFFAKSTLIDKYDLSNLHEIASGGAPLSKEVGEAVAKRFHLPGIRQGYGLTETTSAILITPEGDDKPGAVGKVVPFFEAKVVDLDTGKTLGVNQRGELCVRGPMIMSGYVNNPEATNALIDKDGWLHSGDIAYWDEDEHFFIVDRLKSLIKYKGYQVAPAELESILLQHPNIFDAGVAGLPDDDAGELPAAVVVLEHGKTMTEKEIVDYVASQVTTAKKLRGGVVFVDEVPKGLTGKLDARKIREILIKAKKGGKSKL

O[C@H](CS)[C@H](O)CS (racemic) [DTT, dithiothreitol, reference compound]
integrated quantity of light emitted (RLU/for 200 sec), dependence on concentration (0 to 33.3 mM): increased with increasing DTT concentration
change of the maximum quantity of light emitted (RLU/sec) as compared with the system containing no reagent (0 mM) (0.33 mM and 3.3 mM): little difference
maximum quantity of light emitted relative to the value for the system without DTT (33.3 mM): 1.8 times
RLU/200 (integrated quantity of light emitted for 200 seconds) (final concentration 0.33 mM): 511,723,424 RLU/200 sec
max RLU (maximum quantity of light emitted) (final concentration 0.33 mM): 3,359,620 RLU/sec
RLU/200 (integrated quantity of light emitted for 200 seconds) (final concentration 3.3 mM): 579,940,160 RLU/200 sec
max RLU (maximum quantity of light emitted) (final concentration 3.3 mM): 3,221,070 RLU/sec
RLU/200 (integrated quantity of light emitted for 200 seconds) (final concentration 33.3 mM): 667,250,048 RLU/200 sec
max RLU (maximum quantity of light emitted) (final concentration 33.3 mM): 3,434,180 RLU/sec

Sc1nc2ccccc2s1 [2-mercaptobenzothiazole]
change of the maximum quantity of light emitted (RLU/sec) as compared with the system containing no reagent (0 mM) (0.33 mM and 3.3 mM): increased only slightly
increase in the integrated quantity of light emitted (RLU/200 sec) as compared with the system containing no reagent (0 mM) (0.33 mM and 3.3 mM): about 1.7 fold
maximum and integrated quantity of light emitted relative to the system at a lower concentration (33.3 mM vs 3.3 mM): nearly two-thirds
RLU/200 (integrated quantity of light emitted for 200 seconds) (final concentration 0.33 mM): 492,116,224 RLU/200 sec
max RLU (maximum quantity of light emitted) (final concentration 0.33 mM): 3,267,710 RLU/sec
RLU/200 (integrated quantity of light emitted for 200 seconds) (final concentration 3.3 mM): 622,578,816 RLU/200 sec
max RLU (maximum quantity of light emitted) (final concentration 3.3 mM): 3,410,350 RLU/sec
RLU/200 (integrated quantity of light emitted for 200 seconds) (final concentration 33.3 mM): 421,084,568 RLU/200 sec
max RLU (maximum quantity of light emitted) (final concentration 33.3 mM): 2,603,090 RLU/sec
emission pattern (glow vs flash luminescence): glow luminescence

CCOC(=S)[S-].[K+] [Potassium xanthogenate, potassium xanthogenate]
change of the maximum quantity of light emitted (RLU/sec) as compared with the system containing no reagent (0 mM) (0.33 mM): increased only slightly
increase in the integrated quantity of light emitted (RLU/200 sec) as compared with the system containing no reagent (0 mM) (0.33 mM): about 1.7 fold
maximum and integrated quantity of light emitted relative to the system at a lower concentration (33.3 mM vs 0.33 mM): about one-thirteenth
RLU/200 (integrated quantity of light emitted for 200 seconds) (final concentration 0.33 mM): 616,747,200 RLU/200 sec
max RLU (maximum quantity of light emitted) (final concentration 0.33 mM): 3,232,620 RLU/sec
RLU/200 (integrated quantity of light emitted for 200 seconds) (final concentration 3.3 mM): 92,549,720 RLU/200 sec
max RLU (maximum quantity of light emitted) (final concentration 3.3 mM): 473,070 RLU/sec
RLU/200 (integrated quantity of light emitted for 200 seconds) (final concentration 33.3 mM): 4,519,292 RLU/200 sec
max RLU (maximum quantity of light emitted) (final concentration 33.3 mM): 24,210 RLU/sec
emission pattern (glow vs flash luminescence): glow luminescence

CCN(CC)C(=S)[S-].[Na+] [Sodium diethyldithiocarbamate, sodium diethyldithiocarbamate]
change of the maximum quantity of light emitted (RLU/sec) as compared with the system containing no reagent (0 mM) (0.33 mM and 3.3 mM): increased only slightly
increase in the integrated quantity of light emitted (RLU/200 sec) as compared with the system containing no reagent (0 mM) (0.33 mM and 3.3 mM): about 1.7 fold
maximum and integrated quantity of light emitted relative to the systems at lower concentrations (33.3 mM vs 0.33 mM, 3.3 mM): about two-fifths
RLU/200 (integrated quantity of light emitted for 200 seconds) (final concentration 0.33 mM): 592,116,224 RLU/200 sec
max RLU (maximum quantity of light emitted) (final concentration 0.33 mM): 3,267,710 RLU/sec
RLU/200 (integrated quantity of light emitted for 200 seconds) (final concentration 3.3 mM): 611,260,800 RLU/200 sec
max RLU (maximum quantity of light emitted) (final concentration 3.3 mM): 3,141,880 RLU/sec
RLU/200 (integrated quantity of light emitted for 200 seconds) (final concentration 33.3 mM): 246,535,408 RLU/200 sec
max RLU (maximum quantity of light emitted) (final concentration 33.3 mM): 1,261,630 RLU/sec
emission pattern (glow vs flash luminescence): glow luminescence
